In publication doi:10.1101/2020.10.16.342121v1 (biorxiv, 2020):
pKd: −log10 of the molar value.

Columns and labels:
[1] = molecular target: T1, human serum albumin (HSA) (Homo sapiens, UniProt P02768); test: intrinsic fluorescence quenching titration; format: binding
[2] = molecular target: T1, human serum albumin (HSA); test: thermal denaturation followed by intrinsic fluorescence; format: binding; conditions: 10 mM PBS pH 7.4, 0.4 μM HSA, 40 μM DHLA, 37-87 °C

T1 sequence (P02768 25-609): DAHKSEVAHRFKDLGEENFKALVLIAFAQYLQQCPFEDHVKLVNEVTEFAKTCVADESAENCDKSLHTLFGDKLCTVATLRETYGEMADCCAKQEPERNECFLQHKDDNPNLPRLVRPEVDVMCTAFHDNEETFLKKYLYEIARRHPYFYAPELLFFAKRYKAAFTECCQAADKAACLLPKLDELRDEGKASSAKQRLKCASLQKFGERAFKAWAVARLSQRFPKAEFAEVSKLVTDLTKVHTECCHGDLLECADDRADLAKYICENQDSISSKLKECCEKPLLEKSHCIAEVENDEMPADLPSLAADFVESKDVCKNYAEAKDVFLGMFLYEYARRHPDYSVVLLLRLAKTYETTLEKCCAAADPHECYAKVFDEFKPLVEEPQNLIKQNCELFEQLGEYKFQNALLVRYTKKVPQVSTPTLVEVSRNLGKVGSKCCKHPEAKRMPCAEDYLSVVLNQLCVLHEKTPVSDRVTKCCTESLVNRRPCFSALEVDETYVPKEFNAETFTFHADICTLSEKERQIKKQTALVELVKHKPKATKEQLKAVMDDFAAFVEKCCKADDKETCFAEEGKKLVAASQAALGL

- pKd [1]: 3.90
- Tm with ligand (HSA alone 68 °C) [2]: 70 °C
Compound: O=C(O)CCCC[C@@H](S)CCS [dihydro-alpha-lipoic acid]
